The structures appear in SMILES notation. Numbering of substitutions follows the chain as printed.

Common to all, as to type: biochemical
The target in assay [1] is T1, Zea mays EPSPS variant Zm-H6 (868-H6) with A69V (H6-A69V) (Zea mays, UniProt O24566, A1R/A3W/A415G/A68V/A71Q/D401G/E301S/E390G/G101A/I207L/K83R/L97C/T278A/T360S/T440Q/V437R).
T1 sequence (O24566 with tags, fused parts or gaps A1R/A3W/A68V/A71Q/K83R/L97C/G101A/I207L/T278A/E301S/T360S/E390G/D401G/A415G/V437R/T440Q): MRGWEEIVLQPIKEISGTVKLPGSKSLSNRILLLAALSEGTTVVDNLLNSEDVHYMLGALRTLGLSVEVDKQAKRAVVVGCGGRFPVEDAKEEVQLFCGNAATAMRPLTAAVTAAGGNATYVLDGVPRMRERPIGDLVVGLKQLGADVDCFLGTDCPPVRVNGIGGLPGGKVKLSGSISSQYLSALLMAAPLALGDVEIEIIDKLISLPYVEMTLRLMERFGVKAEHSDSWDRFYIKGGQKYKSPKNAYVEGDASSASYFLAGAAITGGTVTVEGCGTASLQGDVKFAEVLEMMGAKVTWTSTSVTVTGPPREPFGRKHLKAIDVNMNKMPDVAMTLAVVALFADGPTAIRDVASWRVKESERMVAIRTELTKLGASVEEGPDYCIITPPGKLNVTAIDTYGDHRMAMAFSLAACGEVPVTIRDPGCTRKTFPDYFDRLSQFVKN
Put plainly: Rapid two-rate method for (kcat/KM)*KI, H6-A69V. To be noted: [E] 0.07 uM, [Gly] 1000 uM. An excerpt:
(§1) There are several practical considerations for accurately estimating (kcat/KM)*KI with the rapid method. […] 2) The inhibitor concentration must be adjusted so as to obtain a degree of inhibition that minimally amplifies the error in the term v0-vi in Equation 3. If inhibition is too little, v0-vi will be small, and the error in the multiplier vi×v0/(v0-vi) will be large. […] 3) Substrate concentration should be set at the approximate KM of the parental variant(s), subject to the sensitivity of the assay. High substrate concentration obscures sensitivity to the inhibitor and reduces stringency for capturing improvements in KM. Depending on the necessity for speed, there exists opportunity for customizing enzyme and inhibitor concentrations. […] The rapid method was repeated for those and obtained data that correlated better with data obtained by substrate saturation analysis. For screening purposes however, that correlation step is not necessary. Conditions can be set so that variants with a pre-determined minimal fitness level are accurately quantified.
(§2) In Table 15, parameters above the heavy line for the rapid method were obtained under standard conditions. For variants shown below the heavy line, the rapid analysis was repeated with enzyme or glyphosate concentrations adjusted as needed to generate sufficient signal within the limits for linear initial rates.

The target of assay [2] is T2, Zea mays EPSPS variant Zm-H6 (868-H6) with A76V (H6-A76V) (Zea mays, UniProt O24566, A1R/A3W/A415G/A71Q/A75V/D401G/E301S/E390G/G101A/I207L/K83R/L97C/T278A/T360S/T440Q/V437R).
T2 sequence (O24566 with tags, fused parts or gaps A1R/A3W/A71Q/A75V/K83R/L97C/G101A/I207L/T278A/E301S/T360S/E390G/D401G/A415G/V437R/T440Q): T1 sequence (O24566 with tags, fused parts or gaps A1R/A3W/A68V/A71Q/K83R/L97C/G101A/I207L/T278A/E301S/T360S/E390G/D401G/A415G/V437R/T440Q) with V69A, A76V
The assay can be described thus: Substrate saturation kinetic analysis with glyphosate, H6-A76V.

The target in assay [3] is EPSPS enzyme comprising 103I, 107S, and 445G (Zea mays, UniProt O24566, N444G/P106S/T102I). The assay can be described thus: kcat/KM*KI of EPSPS comprising 103I, 107S, 445G. The conditions noted are these: glyphosate as inhibitor. An excerpt:
The EPSPS polypeptides and active variants and fragments thereof disclosed herein may have improved catalytic capacity in the presence of glyphosate when compared to previously identified EPSPS polypeptides. The parameter that best indicates the fitness of this trait in vivo is kcat/KM*KI. The EPSPS polypeptides disclosed herein can have an increased kcat/KM*KI, when compared to previously known EPSPS enzymes. By “increase” is intended any statistically significant increase when compared to an appropriate control. In some embodiments, an appropriate control is a previously known EPSPS sequence, such as that set forth in SEQ ID NO:2 (maize), SEQ ID NO:7 (rice), SEQ ID NO:8 (sorghum), SEQ ID NO:9 (sunflower), SEQ ID NO:13 (soybean), SEQ ID NO:14 (wheat), SEQ ID NO:15 (Brassica rapa), SEQ ID NO:16 (tomato), or SEQ ID NO:17 (potato). In some embodiments, the increase in the kcat/KM*KI when compared to SEQ ID NO:2, 7, 8 9, 13, 14, 15, 16, or 17 can comprise about a 150, 200, 250, 300, 350, 400, 450, 500, 550, 600, 650, 700, 750, 800-fold or greater increase. In still further embodiments, kcat/KM*KI may include, for example, a kcat/KM*KI of more than about 2000, 2500, 3000, 3500, 4000, 4500, 5000, 5500, 6000, 6500, 7000, 7500, 8000, 8500, 9000, 9500, 10000, or more.

For assay [4], the target named is T3, Zea mays EPSPS variant Zm-A189T (Zea mays, UniProt O24566, A188T).
T3 sequence (O24566 with tags, fused parts or gaps A188T): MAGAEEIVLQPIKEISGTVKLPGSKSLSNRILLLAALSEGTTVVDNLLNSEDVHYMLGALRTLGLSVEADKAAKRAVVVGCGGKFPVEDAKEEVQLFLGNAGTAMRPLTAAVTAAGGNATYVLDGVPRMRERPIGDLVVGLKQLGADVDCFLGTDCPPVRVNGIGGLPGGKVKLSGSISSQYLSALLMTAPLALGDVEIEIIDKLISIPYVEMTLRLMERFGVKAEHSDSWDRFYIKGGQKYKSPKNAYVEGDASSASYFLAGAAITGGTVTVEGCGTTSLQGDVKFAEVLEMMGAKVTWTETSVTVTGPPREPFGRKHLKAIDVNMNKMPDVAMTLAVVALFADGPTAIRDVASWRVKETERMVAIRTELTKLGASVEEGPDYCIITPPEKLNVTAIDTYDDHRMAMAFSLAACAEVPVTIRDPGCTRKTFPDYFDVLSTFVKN
The assay can be described thus: Rapid two-rate method for (kcat/KM)*KI, Zm-A189T. The conditions noted are these: [E] 0.07 uM, [Gly] 1000 uM.
Description: as §1, §2

Sequence of EPSPS enzyme comprising 103I, 107S, and 445G (O24566 entry or part of it T102I/P106S/N444G): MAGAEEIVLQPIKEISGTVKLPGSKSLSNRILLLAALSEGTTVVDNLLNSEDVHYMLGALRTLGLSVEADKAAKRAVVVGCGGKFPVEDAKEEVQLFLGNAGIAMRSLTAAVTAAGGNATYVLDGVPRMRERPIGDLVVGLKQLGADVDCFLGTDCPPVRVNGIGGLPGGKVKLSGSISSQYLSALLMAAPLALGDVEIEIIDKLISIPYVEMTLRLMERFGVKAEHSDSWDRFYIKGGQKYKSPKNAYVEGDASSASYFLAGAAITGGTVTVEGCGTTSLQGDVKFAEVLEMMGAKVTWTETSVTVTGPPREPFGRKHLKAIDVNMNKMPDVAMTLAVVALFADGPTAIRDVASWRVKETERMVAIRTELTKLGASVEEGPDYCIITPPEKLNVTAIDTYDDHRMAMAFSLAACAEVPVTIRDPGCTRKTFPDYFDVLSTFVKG

In general, Ki refers to a dissociation constant, usually derived from enzyme kinetics or from competition with a known ligand. A higher Ki goes with weaker binding. With `O=C(O)CNCP(=O)(O)O` [glyphosate, N-phosphonomethylglycine], the “(kcat/KM)*KI” value in assay [1] worked out at 2977; in assay [2] (substrate saturation, H6-A76V), 2490; in assay [3], 2254; in assay [4], 431. The same molecule showed a Ki in assay [2] of 538 µM.

Source of the values: US11549123B2, “Plant EPSP synthases and methods of use” (PIONEER HI-BRED INTERNATIONAL, INC., priority 2015, dated 2023).
